# From patent US20240391958A1, “KEANUMYCINS AND USES THEREOF IN MEDICINE AND PLANT PROTECTION” (Leibniz-Institut für Naturstoff-Forschung und …, priority 2023, published 2024)
# “And” between values parts separate entries of the source, which are not always exact repeats. Identical values can stand only once. Like-named read-outs stand apart in the source and are kept apart here. Where a SMILES comes first, the peptide text is derived from it. Bridges are numbered along the chain shown (N, C = ends). [ ]: non-standard residue; d: D form. The star is where a group is joined. X1 = CCCCCCCCCCCC[C@@H](O)[C@@H](O)CC(=O)*; Asp(3S-OH) = N[C@H](C(=O)O)[C@H](O)C(=O)O; Thr(4-Cl) = N[C@H](C(=O)O)[C@H](O)CCl; aThr = C[C@H](O)[C@H](N)C(=O)O; d(hSer) = N[C@H](CCO)C(=O)O; dDab = NCC[C@@H](N)C(=O)O; Dab = NCC[C@H](N)C(=O)O; Dhb = C/C=C(\N)C(=O)O
# Assays:
# Assay in all cases: Broth dilution method (EUCAST)
# Format in all cases: cell-based
# [1] = test system: Candida glabrata 2021-359
# Description: (§1) The activity assay was performed using the broth dilution method according to the EUCAST DEFINITIVE DOCUMENT E.DEF 9.3.2. B. cinerea and A. solani were incubated according to the Methods for dilution antimicrobial susceptibility tests for bacteria that grow aerobically by the NCCLS. Keanumycin A was dissolved in DMSO.
# [2] = test system: Candida tropicalis 2021-360
# Description: as §1
# [3] = test system: Fusarium proliferatum 2021-361
# Description: as §1
smiles,measurement,setting,value
"C/C=C1\NC(=O)[C@H]([C@H](C)O)NC(=O)[C@H](CCN)NC(=O)[C@@H](CCO)NC(=O)CNC(=O)[C@@H](CCN)NC(=O)[C@@H](NC(=O)C[C@H](O)[C@H](O)CCCCCCCCCCCC)COC(=O)[C@H]([C@H](O)CCl)NC(=O)[C@H]([C@H](O)C(=O)O)NC1=O [Keanumycin A, keanumycin A] (X1-S[dDab]G[d(hSer)][Dab][aThr][Dhb][Asp(3S-OH)][Thr(4-Cl)]; ester 1-C)",MIC,"[1]; Nakaseomyces glabratus, 2021359",0.86 µM and 1 µg/mL
same,MIC,"[1]; Nakaseomyces glabratus, 2021359, read-out: Result of the broth dilution method assay (MIC)",1 µg/mL
same,MIC,"[2]; Candida tropicalis, 2021360",0.86 µM and 1 µg/mL
same,MIC,"[2]; Candida tropicalis, 2021360, read-out: Result of the broth dilution method assay (MIC)",1 µg/mL
same,MIC,[3],> 6.85 µM and > 8 µg/mL
same,MIC,"[3]; Fusarium proliferatum, 2021361, read-out: Result of the broth dilution method assay (MIC)",> 8 µg/mL
